Source: paper PMC5034043 (The Journal of Biological Chemistry, 2016)
Like-named read-outs stand apart in the source and are kept apart here.

Tested on: T1, synaptosomal proteome
T1 construct: from tissue; host or cells: brain synaptosomes of male C57/B6 mice
Type: binding, mouse
Method: Synaptosomes were resuspended to 1 mg of protein/ml in HEPES buffer medium (in mM: 140 NaCl, 5 KCl, 5 NaHCO3, 1.2 NaH2PO4, 1 MgCl2, 10 glucose, and 10 HEPES (pH 7.4)). […] The samples were allowed to equilibrate for 5 min before being transferred to a parafilm-sealed 1-mm path length quartz cuvette. The sample was then irradiated for 20 min at a peak bandwidth of 350 nm (Rayonet RPR-3500 lamp) ∼6 cm from the light source. Non-irradiated samples were left in the dark at ambient temperature (22–25 °C) for 20 min. All remaining procedures were conducted with restricted light exposure.
To 750 μg of photolabeled or control synaptosome samples, 40 μl of 10% SDS and 2 μl of 5 mM DTT in water were added. Samples were then vortexed, heated for 10 min at 65 °C, and then briefly cooled. Final concentrations of 150 μM azide-biotin (Click Chemistry Tools), 2 mM tris(3-hydroxypropyltriazolylmethyl)amine (Sigma), 1 mM ascorbic acid (Sigma), and 1 mM CuSO4·5H2O (Sigma) were added to each sample and vortexed vigorously. The samples were left in the dark at ambient temperature (22–25 °C) for 1 h with mild agitation. Directly to each sample 4× volume chilled methanol, 1.5× chilled chloroform, and 3× chilled double distilled H2O were added. Samples were vortexed vigorously and centrifuged at 1,400 × g for 30 min at 4 °C. Both liquid layers were carefully removed, and the protein pellet was washed with 2 ml of 1:1 (v/v) chilled methanol/chloroform. Samples were centrifuged at 3,500 × g for 30 min at 4 °C. Protein pellets were briefly air-dried before further processing.
750 μg of biotin-conjugated protein sample was resuspended in 500 μl of 25 mM NH4HCO3 and 6 M urea in water. Next, 150 μl of 5% Triton X-100 in water, 50 μl of 10% SDS in water, and 1.5 μl of 0.5 M DTT were added. The samples were heated for 15 min at 65 °C. After briefly cooling, 14 μl of 0.5 M iodoacetamide in water was added, and the sample was left in the dark for 45 min. […] The supernatant was diluted to 4 ml with PBS, and 2 ml of PBS containing 100 μl of 50% streptavidin-agarose resin (Thermo Scientific) was added. Biotinylated proteins within the sample were captured over resin overnight at 4 °C with mild agitation. The resin was first washed with 6 ml of 1% SDS in PBS, and then 7 ml of 0.1 M urea in PBS followed by 10 ml of PBS. The resin underwent a final wash with 0.9 ml of 50 mM Tris-HCl and 1 mM CaCl2 in water (pH 8.0) and then resuspended in 200 μl of 50 mM Tris-HCl, 1 mM CaCl2 in water (pH 8.0), and 2 μg of porcine sequencing grade trypsin (Promega). Samples were digested overnight at 37 °C. Samples were then centrifuged at 2,000 × g for 4 min, and digest supernatant was decanted. Beads were washed in 100 μl of PBS centrifuged at 5,200 × g for 5 min, and the wash was combined with the digest supernatant. To the combined sample, trifluoroacetic acid (TFA) was added to 0.4% (v/v) or until pH <2. The sample was desalted with Oasis C18 10-mg columns (Waters) as described previously ([66]). The eluted sample was dried by speed vac and resuspended in 0.1 M HEPES buffer (pH 8.5). […] Appropriate corresponding TMTsixplex^TM-labeled samples were pooled and dried by speed vac. The combined samples were resuspended in 0.5% acetic acid in water and pH-corrected with acetic acid until pH was <2. 40 μg of protein was desalted with C18 stage tips prepared in-house and dried by speed vac.
Samples were resuspended in 10 mM KH2PO4 (pH 2.6), 30% acetonitrile (v/v) in water, and fractionated by off-line strong cation exchange chromatography prior to mass spectrometry (MS) analysis similar to as reported previously ([66]). The full synaptosome proteome control was prepared similarly without TMTsixplex^TM labeling.
All TMT samples were analyzed with three-stage mass spectrometry (MS3) TMTsixplex^TM quantification workflow as described previously ([34]).

[1] = protein P27671 Ras-specific guanine nucleotide-releasing factor 1 (Rasgrf1)
[2] = protein P35762 CD81 antigen (Cd81)
[3] = protein P46096 Synaptotagmin-1 (Syt1)
[4] = protein P50544 Very long-chain specific acyl-CoA dehydrogenase, mitochondrial (Acadvl)
[5] = protein P50571 Gamma-aminobutyric acid receptor subunit beta-1 (Gabrb1)
[6] = protein P56564 Excitatory amino acid transporter 1 (Slc1a3)
[7] = protein P60879 Synaptosomal-associated protein 25 (Snap25)
[8] = protein P61264 Syntaxin-1B (Stx1b)
[9] = protein P62204 Calmodulin (Calm1)
[10] = protein P63328 Serine/threonine-protein phosphatase 2B catalytic subunit alpha isoform (Ppp3ca)
[11] = protein Q2TPA8 Hydroxysteroid dehydrogenase-like protein 2 (Hsdl2)
[12] = protein Q3TXX4 Vesicular glutamate transporter 1 (Slc17a7)
[13] = protein Q3UN02 Lysocardiolipin acyltransferase 1 (Lclat1)
[14] = protein Q4W8U9 Scg2 protein (Scg2)
[15] = protein Q5U458 DnaJ homolog subfamily C member 11 (Dnajc11)
[16] = protein Q7TME0 Lipid phosphate phosphatase-related protein type 4 (Lppr4)
[17] = protein Q7TQ95 Protein lunapark (Lnp)
[18] = protein Q8BFT9 Synaptic vesicle 2-related protein (Svop)
[19] = protein Q8BG39 Synaptic vesicle glycoprotein 2B (Sv2b)
[20] = protein Q8BH59 Calcium-binding mitochondrial carrier protein Aralar1 (Slc25a12)
[21] = protein Q8BH66 Atlastin-1 (Atl1)
[22] = protein Q8BUN9 Protein Slc24a2 (Slc24a2)
[23] = protein Q8BW75 Amine oxidase [flavin-containing] B (Maob)
[24] = protein Q8CGK7 Guanine nucleotide-binding protein G(olf) subunit alpha (Gnal)
[25] = protein Q8K0T0 Reticulon-1 (Rtn1)
[26] = protein Q9CPQ3 Mitochondrial import receptor subunit TOM22 homolog (Tomm22)
[27] = protein Q9CWK8 Sorting nexin-2 (Snx2)
[28] = protein Q9D6J5 NADH dehydrogenase [ubiquinone] 1 beta subcomplex subunit 8, mitochondrial (Ndufb8)
[29] = protein Q9D328 Transmembrane protein 35 (Tmem35)
[30] = protein Q9ERS2 NADH dehydrogenase [ubiquinone] 1 alpha subcomplex subunit 13 (Ndufa13)
[31] = protein Q9ESW4 Acylglycerol kinase, mitochondrial (Agk)
[32] = protein Q9QXV0 ProSAAS (Pcsk1n)
[33] = protein Q9QZM0 Ubiquilin-2 (Ubqln2)
[34] = protein Q9R0K7 Plasma membrane calcium-transporting ATPase 2 (Atp2b2)
[35] = protein Q9Z0V2 Potassium voltage-gated channel subfamily D member 2 (Kcnd2)
[36] = protein Q67BT3 Solute carrier family 13 member 5 (Slc13a5)
[37] = protein Q80X80 C2 domain-containing protein 2-like (C2cd2l)
[38] = protein Q91YQ5 Dolichyl-diphosphooligosaccharide--protein glycosyltransferase subunit 1 (Rpn1)
[39] = protein Q99PU5 Long-chain-fatty-acid--CoA ligase ACSBG1 (Acsbg1)

SMILES: CC(C)c1cccc(C(C)C)c1O [propofol, 2,6-diisopropylphenol, reference compound]
- % propofol protection [1]: 54%
- Log2( Mean 'UV/ UV+propofol') [1]: 1.10
- % propofol protection (protein P35564 Calnexin (Canx)): 54%
- Log2( Mean 'UV/ UV+propofol') (protein P35564 Calnexin (Canx)): 1.07
- % propofol protection [2]: 58%
- Log2( Mean 'UV/ UV+propofol') [2]: 1.14
- % propofol protection [3]: 50%
- Log2( Mean 'UV/ UV+propofol') [3]: 0.95
- % propofol protection [4]: 51%
- Log2( Mean 'UV/ UV+propofol') [4]: 0.99
- % propofol protection [5]: 58%
- Log2( Mean 'UV/ UV+propofol') [5]: 1.06
- Log2( Mean 'UV/ UV+propofol') (protein P56480 ATP synthase subunit beta, mitochondrial (Atp5b)): 1.15
- % propofol protection [6]: 56%
- Log2( Mean 'UV/ UV+propofol') [6]: 1.10
- % propofol protection [7]: 57%
- Log2( Mean 'UV/ UV+propofol') [7]: 1.12
- % propofol protection [8]: 57%
- Log2( Mean 'UV/ UV+propofol') [8]: 1.14
- % propofol protection [9]: 53%
- Log2( Mean 'UV/ UV+propofol') [9]: 0.97
- % propofol protection [10]: 52%
- Log2( Mean 'UV/ UV+propofol') [10]: 0.93
- % propofol protection [11]: 53%
- Log2( Mean 'UV/ UV+propofol') [11]: 1.03
- % propofol protection [12]: 57%
- Log2( Mean 'UV/ UV+propofol') [12]: 1.15
- % propofol protection [13]: 52%
- Log2( Mean 'UV/ UV+propofol') [13]: 1.03
- % propofol protection [14]: 53%
- Log2( Mean 'UV/ UV+propofol') [14]: 0.99
- Log2( Mean 'UV/ UV+propofol') (protein Q5IRJ6 Zinc transporter 9 (Slc30a9)): 1.17
- % propofol protection [15]: 53%
- Log2( Mean 'UV/ UV+propofol') [15]: 0.96
- % propofol protection [16]: 57%
- Log2( Mean 'UV/ UV+propofol') [16]: 1.08
- % propofol protection [17]: 58%
- Log2( Mean 'UV/ UV+propofol') [17]: 1.23
- % propofol protection [18]: 53%
- Log2( Mean 'UV/ UV+propofol') [18]: 0.94
- % propofol protection [19]: 50%
- Log2( Mean 'UV/ UV+propofol') [19]: 0.94
- Log2( Mean 'UV/ UV+propofol') (protein Q8BG51 Mitochondrial Rho GTPase 1 (Rhot1)): 1.18
- Log2( Mean 'UV/ UV+propofol') (protein Q8BH24 Transmembrane 9 superfamily member 4 (Tm9sf4)): 1.11
- % propofol protection [20]: 50%
- Log2( Mean 'UV/ UV+propofol') [20]: 0.98
- % propofol protection [21]: 57%
- Log2( Mean 'UV/ UV+propofol') [21]: 1.14
- % propofol protection [22]: 52%
- Log2( Mean 'UV/ UV+propofol') [22]: 1.03
- % propofol protection [23]: 56%
- Log2( Mean 'UV/ UV+propofol') [23]: 1.10
- % propofol protection [24]: 55%
- Log2( Mean 'UV/ UV+propofol') [24]: 1.05
- % propofol protection [25]: 57%
- Log2( Mean 'UV/ UV+propofol') [25]: 1.05
- Log2( Mean 'UV/ UV+propofol') (protein Q8VCX5 Calcium uptake protein 1, mitochondrial (Micu1)): 1.09
- % propofol protection [26]: 57%
- Log2( Mean 'UV/ UV+propofol') [26]: 1.05
- % propofol protection [27]: 51%
- Log2( Mean 'UV/ UV+propofol') [27]: 1.00
- % propofol protection [28]: 57%
- Log2( Mean 'UV/ UV+propofol') [28]: 1.23
- % propofol protection [29]: 55%
- Log2( Mean 'UV/ UV+propofol') [29]: 1.10
- % propofol protection [30]: 53%
- Log2( Mean 'UV/ UV+propofol') [30]: 0.98
- % propofol protection [31]: 58%
- Log2( Mean 'UV/ UV+propofol') [31]: 1.18
- Log2( Mean 'UV/ UV+propofol') (protein Q9JIG8 PRA1 family protein 2 (Praf2)): 1.23
- % propofol protection [32]: 57%
- Log2( Mean 'UV/ UV+propofol') [32]: 1.11
- % propofol protection [33]: 51%
- Log2( Mean 'UV/ UV+propofol') [33]: 0.96
- % propofol protection [34]: 51%
- Log2( Mean 'UV/ UV+propofol') [34]: 1.00
- Log2( Mean 'UV/ UV+propofol') (protein Q9WU79 Proline dehydrogenase 1, mitochondrial (Prodh)): 1.11
- % propofol protection [35]: 52%
- Log2( Mean 'UV/ UV+propofol') [35]: 1.01
- % propofol protection [36]: 57%
- Log2( Mean 'UV/ UV+propofol') [36]: 1.13
- % propofol protection [37]: 53%
- Log2( Mean 'UV/ UV+propofol') [37]: 1.04
- % propofol protection [38]: 55%
- Log2( Mean 'UV/ UV+propofol') [38]: 1.11
- % propofol protection [39]: 58%
- Log2( Mean 'UV/ UV+propofol') [39]: 1.12
- Log2( Mean 'UV/ UV+propofol') (protein Q925I1 ATPase family AAA domain-containing protein 3 (Atad3)): 1.17
